# Patent US20080051332A1, “METHOD OF MODULATING HEMATOPOIETIC STEM CELLS AND TREATING HEMATOLOGIC DISEASES USING INTRANASAL PARATHYROID HORMONE” (Nastech Pharmaceutical Company Inc., priority 2005, published 2008)
# Entries after “also recorded” stand apart in the source; their conditions may differ. Where two headings read alike, the source gives them in different places. Ends that are not written are not given here.
# Columns and labels:
# [1] = system: ciliary motility; details: pyo compound without obvious ultrastructural lesions; phenazine derivative with some membrane disruption; cited from earlier work
# [2] = 100 μg/day by injection, preliminary results; cited from earlier work
# [3] = system: normal, human-derived tracheal/bronchial epithelial cells (EpiAirway™ Tissue Model); format: in vitro ADME
# Protocol: (§1) The effect of various “Generally Regarded As Safe” (GRAS) permeation enhancers was measured in a MatTek cell model. Three GRAS permeation enhancers (EDTA, ethanol, Tween 80) were evaluated individually or in combination with one another. Sorbitol was used as a tonicifier to adjust the osmolarity of formulations to 220 mOsm/kg whenever applicable. The formulation pH was adjusted to 4. The permeation enhancer combination of 45 mg/ml M-β-CD, 1 mg/ml DDPC, and 1 mg/ml EDTA at pH 4.5 served as the positive control. The formulation contains sorbitol only was used as the negative control. Each formulation is evaluated in the presence and absence of preservative. For all formulations, sodium benzoate is used as the preservative.
# (§2) The cell line MatTek Corp. (Ashland, Mass.) are normal, human-derived tracheal/bronchial epithelial cells (EpiAirway™ Tissue Model). Cells are cultured for 24-48 hours before use to produce a tissue insert.
# Each tissue insert is placed in an individual well containing 1 ml media. On the apical surface of the inserts, 100 μl of test formulation is applied, and the sample is shaken for 1 h at 37° C. […] Transepithelial electrical resistance (TER) is measured before and after the 1-h incubation. Following the incubation, the cell inserts are analyzed for cell viability via the mitochondrial dehydrogenase (MDH) assay. […]
# [4] = system: Human chondrocytes; assay: Alginate-based cartilage growth model, type II collagen production; format: cell-based
# Protocol: Next, the alginate-based cell system (cartilage growth model) was used to determine whether PTH dosing could stimulate chondrocytes to produce cartilage. […] Type II collagen is a major component of the extracellular matrix of nasal cartilage and therefore was used as a molecular marker for cartilage growth in this assay.
# The cell-containing alginate beads were incubated in the presence of various test solutions for 12 days at 37° C., 5% CO2. After the incubation, the alginate beads were processed using an extraction method in order to quantify the production of type II collagen.
# The effect of PTH on Type II collagen production was studied. The positive control in this study was re-differentiation media and the negative control was growth media. PTH was tested in a range of 20 μg to 200 μg as FORSTEO or a formulation containing the formulation enhancers (sample 1, above).
# In addition, type II collagen production was assessed in the presence of a formulation containing 5 μg of insulin-like growth factor I (IGF-I). IGF-I is known to be a potent promoter of cartilage type-II collagen expression in chondrocytes and thus is an ideal positive control for the assay.
# [5] = system: hematopoietic stem cells; details: mice, Calvi et al. 2003; cited from earlier work
# [6] = system: human chondrocyte cell monolayer; assay: Human chondrocyte monolayer proliferation (MTT); format: cell-based; details: MTT at t=0 and after 4 days at 37° C./5% CO2
# Text: A human chondrocyte cell monolayer model was employed to examine cell proliferation in the presence of PTH in a simple formulation (FORSTEO) or a formulation containing PTH and the formulation enhancers (sample 1, above). These were compared to a positive control (media containing antibiotics, insulin, TGF-beta and IGF-1) and negative control (media devoid of any cell growth components). It was desired to understand if the presence of PTH could stimulate chondrocyte growth. To this end, the above mentioned formulations and controls were applied to the apical side of the chondrocyte monolayers, and the MTT assay (Example 3) was conducted at t=0 and then after 4 days incubation at 37° C./5% CO2.
# [7] = after feeding to rats; cited from earlier work
# [8] = system: normal, human-derived tracheal/bronchial epithelial cells (EpiAirway™ Tissue Model); assay: Transepithelial electrical resistance (TER) in MatTek EpiAirway tissue model; format: cell-based; details: 100 μl formulation on apical surface, 1 h at 37° C., TER before and after
# Protocol: The effect of various “Generally Regarded As Safe” (GRAS) permeation enhancers was measured in a MatTek cell model. Three GRAS permeation enhancers (EDTA, ethanol, Tween 80) were evaluated individually or in combination with one another. Sorbitol was used as a tonicifier to adjust the osmolarity of formulations to 220 mOsm/kg whenever applicable. The formulation pH was adjusted to 4. The permeation enhancer combination of 45 mg/ml M-β-CD, 1 mg/ml DDPC, and 1 mg/ml EDTA at pH 4.5 served as the positive control. The formulation contains sorbitol only was used as the negative control. Each formulation is evaluated in the presence and absence of preservative. […]
# (§3) Each tissue insert is placed in an individual well containing 1 ml media. […] Transepithelial electrical resistance (TER) is measured before and after the 1-h incubation. Following the incubation, the cell inserts are analyzed for cell viability via the mitochondrial dehydrogenase (MDH) assay.
# TER measurements are accomplished using the Endohm-12 Tissue Resistance Measurement Chamber connected to the EVOM Epithelial Volt-ohmmeter (World Precision Instruments, Sarasota, Fla.) with the electrode leads. […] The background resistance is measured with 1.5 ml Media in the Endohm tissue chamber and 300 μl Media in the blank insert. […] Resistance is expressed as (resistance measured−blank)×0.6 cm^2. […]
# [9] = system: normal, human-derived tracheal/bronchial epithelial cells (EpiAirway™ Tissue Model); assay: Cell viability, MTT assay, EpiAirway tissue inserts; format: cell-based; details: after 1 h incubation with formulation
# Protocol: as §1, §2, §3
# Cell viability is assessed using the MTT assay (MTT-100, MatTek kit). […] The optical density of the samples was measured at 550 nm on a plate reader.
# [10] = system: normal, human-derived tracheal/bronchial epithelial cells (EpiAirway™ Tissue Model); assay: Cytotoxicity, LDH assay, EpiAirway tissue inserts; format: cell-based; details: after 1 h incubation with formulation
# Protocol: The effect of various “Generally Regarded As Safe” (GRAS) permeation enhancers was measured in a MatTek cell model. Three GRAS permeation enhancers (EDTA, ethanol, Tween 80) were evaluated individually or in combination with one another. Sorbitol was used as a tonicifier to adjust the osmolarity of formulations to 220 mOsm/kg whenever applicable. The formulation pH was adjusted to 4. The permeation enhancer combination of 45 mg/ml M-β-CD, 1 mg/ml DDPC, and 1 mg/ml EDTA at pH 4.5 served as the positive control. The formulation contains sorbitol only was used as the negative control. Each formulation is evaluated in the presence and absence of preservative. For all formulations, sodium benzoate is used as the preservative. […]
# as §3
# The amount of cell death is assayed by measuring the loss of lactate dehydrogenase (LDH) from the cells using a CytoTox 96 Cytoxicity Assay Kit (Promega Corp., Madison, Wis.). LDH analysis of the apical media is evaluated. […] Following incubation, 50 μl of stop solution is added to each well and the plates read on an optical density plate reader at 490 nm.
# [11] = anesthetized rats, cited from earlier work
compound,measurement,setting,value
2-alkyl-4-hydroxyquinolines [pyo compound],concentration producing ciliostasis / inhibiting ciliary motility,[1],50 µg/mL
"CC[C@H](C)[C@H](NC(=O)[C@H](CCC(=O)O)NC(=O)[C@H](CO)NC(=O)[C@@H](NC(=O)[C@@H](N)CO)C(C)C)C(=O)N[C@@H](CCC(N)=O)C(=O)N[C@@H](CC(C)C)C(=O)N[C@@H](CCSC)C(=O)N[C@@H](Cc1cnc[nH]1)C(=O)N[C@@H](CC(N)=O)C(=O)N[C@@H](CC(C)C)C(=O)NCC(=O)N[C@@H](CCCCN)C(=O)N[C@@H](Cc1cnc[nH]1)C(=O)N[C@@H](CC(C)C)C(=O)N[C@@H](CC(N)=O)C(=O)N[C@@H](CO)C(=O)N[C@@H](CCSC)C(=O)N[C@@H](CCC(=O)O)C(=O)N[C@@H](CCCN=C(N)N)C(=O)N[C@H](C(=O)N[C@@H](CCC(=O)O)C(=O)N[C@@H](Cc1c[nH]c2ccccc12)C(=O)N[C@@H](CC(C)C)C(=O)N[C@@H](CCCN=C(N)N)C(=O)N[C@@H](CCCCN)C(=O)N[C@@H](CCCCN)C(=O)N[C@@H](CC(C)C)C(=O)N[C@@H](CCC(N)=O)C(=O)N[C@@H](CC(=O)O)C(=O)N[C@H](C(=O)N[C@@H](Cc1cnc[nH]1)C(=O)N[C@@H](CC(N)=O)C(=O)N[C@@H](Cc1ccccc1)C(=O)O)C(C)C)C(C)C [Teriparatide, teriparatide]",success rates in bone marrow transplant patients,[2],improves success rates
same,impact of preservative on Teriparatide permeation,[3],no significant impact
same,type II collagen production,"[4]; 20 μg of PTH, citrate buffer or with permeation enhancers, 12 days",did not induce a substantial production of type II collagen
same,type II collagen production,"[4]; high concentration of PTH (200 μg) in a simple formulation, 12 days, listed as PTH",a significant increase in type II collagen was observed; also recorded: modest amounts of type II collagen production
same,type II collagen production,"[4]; high concentration of PTH in the presence of permeation enhancers, 12 days, listed as PTH",essentially no production of type II collagen; also recorded: did not induce any cartilage growth
same,number of functional HSCs and survival after bone marrow transplantation,[5],increases the number of functional HSCs and survival after bone marrow transplantation
same,chondrocyte proliferation,[6],does not promote growth of chondrocytes
Phaseolus vulgaris hemagglutinin,oral bioavailability,[7],more than 10%
Triton X,TER reduction,[8],significant TER reduction
same,cell viability (MTT assay),[9],significant reduction of cell viability
same,cytotoxicity (LDH assay),[10],significant cytotoxicity
"calcitonin (CGNLSTCMLGTYTQDFNKFHTFPQTAIGVGAP; ends and bridges not checked; cysteine pairing not given here; UniProt P01258 85-116, looked up)",type II collagen production,[4]; 20 μg or 200 μg calcitonin,no effect
human growth hormone,nasal bioavailability,[11]; with N-acetyl-L-cysteine (ACS),12.2%
same,nasal bioavailability,[11]; without N-acetyl-L-cysteine,7.5%
insulin-like growth factor I [IGF-I],type II collagen production,"[4]; 5 μg IGF-I, positive control",greater than 1.2 pg per culture
